Results from patent US7109223B2, “Oxazolidin-2-one and thiazolidin-2-one derivatives for use as EP4 receptor agonists in the treatment of glaucoma” (Merck & Co. Inc., priority 2002, dated 2006).
Entries after “also recorded” stand apart in the source; their conditions may differ.

Key:
[1] = system: ROS 17/2.8 rat osteosarcoma cells; assay: Effect on intracellular cAMP in ROS 17/2.8 cells; type: cell-based
Method: (§1) RCT-1 and RCT-3 are clonal cell lines immortalized by SV-40 large T antigen from cells released from fetal rat calvair by a cmbination collagenase/hyaluronidase digestion. RCT-1 cells, derived from cells released during the first 10 minutes of digestion (fraction I), are cultured in RPMI 1640 medium (BRL) with 10% fetal bovine serum and 0.4 mg/ml G418 (BRL). These cells differentiate and express osteoblastic features upon retinoic acid treatment. RCT-3 cells, immortalized from osteoblast-enriched fraction III cells, are cultured in F-12 medium (BRL) with 5% Fetal bovine serum and 0.4 mg/ml G418. TRAB-11 cells are also immortalized by SV40 large T antigen from adult rat tibia and are cultured in RPMI 1640 medium with 10% FBS and 0.4 mg/ml G418. ROS 17/2.8 rat osteosarcoma cells are cultured in F-12 containing 5% FBS. Osteoblast-enriched (fraction III) primary fetal rat calvaria cells are obtained by collagenase/hyaluronidase digestion of calvariae of 19 day-old rat fetuses. See Rodan et al., Growth stimulation of rat calvaria osteoblastic cells by acidic FGF, Endocrinology, 121, 1919–1923 (1987), which is incorporated by reference herein in its entirety. Cells are released during 30–50 minutes digestion (fraction III) and are cultured in F-12 medium containing 5% FBS. […]

RCT-3 cells [2] = assay: Effect on intracellular cAMP in RCT-3 cells; type: cell-based, rat
Method: as §1

TRAB-11 cells = assay: Effect on intracellular cAMP in TRAB-11 cells; type: cell-based, rat
Method: as §1

RP-1 periosteal cells = assay: EP4 and EP2 mRNA levels in RP-1 periosteal cells (Northern blot); type: cell-based, rat; details: RP-1 cells
Method: RP-1 periosteal cells are spontaneously immortalized from primary cultures of periosteal cells from tibae of 4-week old Sprague-Dawley rats and are cultured in DMEM (BRL, Gaithersburg, Md.) with 10% fetal bovine serum (JRH Biosciences, Lenexa, Kans.).
(§2) Total RNA is extracted from the tibial metaphysis or diaphysis and calvaria using a guanidinium isothiocyanate-phenol-chloroform method after pulverizing frozen bone samples by a tissue homogenizer. See P. Chomczynski et al., Single-step method of RNA isolation by acid guanidium thiocyanate-phenol-chloroform extraction, Analyt Biochem, 162, 156–159 (1987), which is incorporated by reference herein in its entirety. RNA samples ([…]) are separated on 0.9% agarose/formaldehyde gels and transferred onto nylon membranes (Boehringer Mannheim, Germany). Membranes are prehybridized in Hybrisol I (Oncor, Gaithersburg, Md.) and 0.5 mg/ml sonicated salmon sperm DNA (Boehringer) at 42° C. for 3 hours and are hybridized at 42° C. with rat EP2 and mouse EP4 cDNA probes labeled with [^32P]-dCTP (Amersham, Buckinghamshire, UK) by random priming using the rediprime kit (Amersham). After hybridization, membranes are washed 4 times in 2× SSC+0.1% SDS at room temperature for a total of 1 hour and once with 0.2× SSC+0.1% SDS at 55° C. for 1 hour and then exposed to Kodak XAR 2 film at −70° C. using intensifying screens. After developing the films, bound probes are removed twice with 0.1% SDS at 80° C. and membranes are hybridized with a human GAPDH (Glyceraldehyde 3-Phosphate Dehydrogenase) cDNA probe (purchased from Clontech, Palo Alto, Calif.) for loading control.
PGE2 enhances its own production via upregulation of cyclooxygenase 2 expression in osteoblasts and in bone tissue thus autoamplifying its own effects. PGE2 also increases the levels of EP4 mRNA. RP-1 cells are immortalized from a primary culture of adult rat tibia periosteum is examined. These cells express osteoblast phenotypic markers upon confluence and form mineralized bone matrix when implanted in nude mice. […]

RCT-3 cells [3] = assay: EP4 mRNA levels in RCT-3 cells (Northern blot); type: cell-based, rat
Method: as §1

bone tissue = assay: EP4 and EP2 mRNA levels in vivo in bone tissue (Northern blot); design: species or system rat
Method: (§3) For mRNA localization experiments, 5-week old Sprague-Dawley rats (Charles River) are euthanized by CO2, their tibiae and calvariae are excised, cleaned of soft tissues and frozen immediately in liquid nitrogen. For EP4 regulation experiments, 6-week old rats are given a single injection of either vehicle (7% ethanol in sterile water) or an anabolic dose of PGE2 (Cayman Chemical, Ann Arbor, Mich.), 3–6 mg/kg in the same vehicle) intraperitoneally. Animals are euthanized at several time points post-injection and their tibiae and calvariae, as well as samples from lung and kidney tissues are frozen in liquid nitrogen.
as §2, with “control. […]” for “control.”

bone marrow cells = assay: Localization of EP4 mRNA expression in bone tissue (in situ hybridization); type: in vivo, rat; details: rats, single anabolic dose
Method: as §3
Frozen tibiae are sectioned coronally at […] thickness and sections are mounted on charged slides (Probe On Plus, Fisher Scientific, Springfield, N.J.) and are kept at −70° C. until hybridization. cRNA probes are labeled with ^35S-UTPgS (ICN, Costa Mesa, Calif.) using a Riboprobe II kit (Promega Madison, Wis.). Hybridization is performed overnight at 50° C. […]
In situ hybridization is used in order to localize cells expressing EP4 in bone. In control experiment (vehicle-injected) rats, low expression of EP4 is detected in bone marrow cells. […]

`CCCCC[C@H](O)/C=C/[C@H]1[C@H](O)CC(=O)[C@@H]1C/C=C\CCCC(=O)O` [PGE2] was tested, and the “effect on intracellular cAMP” value [1] was “no effect”, the “effect on intracellular cAMP” value (RCT-3 cells [2]) was “markedly induced” and the “effect on intracellular cAMP” value (TRAB-11 cells) was “markedly induced”. For the same compound, the “EP2 mRNA” value (RP-1 periosteal cells) was “not expressed; also recorded: does not induce”, the “EP4 mRNA levels” value (RP-1 periosteal cells; 10^−6M) was “rapidly increases” and the “time of peak EP4 mRNA levels after treatment” value (RP-1 periosteal cells; 10^−6M) was 2 h. The “EP4 mRNA levels” value (RCT-3 cells [3]) was “no effect”, the “time of peak EP4 mRNA levels in the tibial diaphysis after injection” value (bone tissue; five-week-old male rats, 3–6 mg/Kg) was 2 h and the “EP4 mRNA levels in the tibial diaphysis” value (bone tissue; five-week-old male rats, 3–6 mg/Kg, systemic administration) was “rapidly increased”. For the same compound, the “EP2 mRNA in bone tissue” value (bone tissue; rats) was “does not induce” and the “expression of EP4 in bone marrow cells” value (bone marrow cells) was “increased”.
